The supplement of paper PMC13380429

Experiments:
Conditions in all cases: 72 h
Calu-3 [1] = test: drug sensitivity score (DSS) for viability; higher = more toxic; extreme values may be limits of the assay
U2OS [2] = test: as above
HepG2 [3] = test: as above
Caco-2 [4] = test: as above
Vero E6 [5] = test: as above
Calu-3 [6] = test: relative viability EC50 (midpoint between 100% and the lowest measured viability); higher = less toxic
U2OS [7] = test: as above
HepG2 [8] = test: as above
Caco-2 [9] = test: as above
Vero E6 [10] = test: as above
Calu-3 [11] = test: cell viability relative to DMSO; higher = less toxic
U2OS [12] = test: as above
HepG2 [13] = test: as above
Caco-2 [14] = test: as above
Vero E6 [15] = test: as above

| Compound | drug sensitivity score (Calu-3 [1]) | drug sensitivity score (U2OS [2]) | drug sensitivity score (HepG2 [3]) | drug sensitivity score (Caco-2 [4]) | drug sensitivity score (Vero E6 [5]) | relative viability EC50 (Calu-3 [6]) [µM] | relative viability EC50 (U2OS [7]) [µM] | relative viability EC50 (HepG2 [8]) [µM] | relative viability EC50 (Caco-2 [9]) [µM] | relative viability EC50 (Vero E6 [10]) [µM] | cell viability (Calu-3 [11]; 1 nM) [%] | cell viability (Calu-3 [11]; 10 nM) [%] | cell viability (Calu-3 [11]; 100 nM) [%] | cell viability (Calu-3 [11]; 1000 nM) [%] | cell viability (Calu-3 [11]; 10000 nM) [%] | cell viability (U2OS [12]; 1 nM) [%] | cell viability (U2OS [12]; 10 nM) [%] | cell viability (U2OS [12]; 100 nM) [%] | cell viability (U2OS [12]; 1000 nM) [%] | cell viability (U2OS [12]; 10000 nM) [%] | cell viability (HepG2 [13]; 1 nM) [%] | cell viability (HepG2 [13]; 10 nM) [%] | cell viability (HepG2 [13]; 100 nM) [%] | cell viability (HepG2 [13]; 1000 nM) [%] | cell viability (HepG2 [13]; 10000 nM) [%] | cell viability (Caco-2 [14]; 1 nM) [%] | cell viability (Caco-2 [14]; 10 nM) [%] | cell viability (Caco-2 [14]; 100 nM) [%] | cell viability (Caco-2 [14]; 1000 nM) [%] | cell viability (Caco-2 [14]; 10000 nM) [%] | cell viability (Vero E6 [15]; 1 nM) [%] | cell viability (Vero E6 [15]; 10 nM) [%] | cell viability (Vero E6 [15]; 100 nM) [%] | cell viability (Vero E6 [15]; 1000 nM) [%] | cell viability (Vero E6 [15]; 10000 nM) [%] |
| --- | --- | --- | --- | --- | --- | --- | --- | --- | --- | --- | --- | --- | --- | --- | --- | --- | --- | --- | --- | --- | --- | --- | --- | --- | --- | --- | --- | --- | --- | --- | --- | --- | --- | --- | --- |
| CSCC[C@H](NC(=O)[C@H](CC(C)C)NC(=O)[C@@H](Cc1c[nH]c2ccccc12)NC(=O)[C@H](Cc1ccccc1)N(C)C(=O)[C@@H](Cc1c[nH]c2ccccc12)NC(=O)[C@@H](N)CCCNC(=N)N)C(N)=O [antagonist-g] | 0 | 0 | 0 | 0 | 0 | > 10 | > 10 | > 10 | > 10 | > 10 | 105 | 91 | 98.8 | 89.3 | 111 | 99.9 | 93.1 | 97.7 | 97 | 97.4 | 104 | 98.1 | 103 | 84.8 | 105 | 93.8 | 89.7 | 96.3 | 75.6 | 122 | 96.2 | 97 | 102 | 85.6 | 96.3 |
| CCn1ccnc1CC1COc2ccccc2O1 (stereo not given) [imiloxan] | 0 | 0 | 0 | 0 | 0 | > 10 | > 10 | > 10 | > 10 | > 10 | 97.9 | 98.5 | 99.7 | 107 | 94.4 | 101 | 98.4 | 99.2 | 101 | 104 | 90.6 | 91.6 | 94.5 | 93.2 | 116 | 106 | 87.6 | 92.9 | 104 | 102 | 92.5 | 99.8 | 95.9 | 90.7 | 102 |
| C=C1/C(=C\C=C2/CCC[C@]3(C)[C@@H]([C@H](C)/C=C/[C@@H](O)C4CC4)CC[C@@H]23)C[C@@H](O)C[C@@H]1O [calcipotriol] | 0 | 0 | 0 | 0 | 0 | > 10 | > 10 | > 10 | > 10 | > 10 | 95.4 | 108 | 102 | 93.7 | 96 | 99.5 | 96.9 | 99 | 94.8 | 93.5 | 101 | 88.5 | 95 | 99.6 | 94.6 | 94.7 | 88.6 | 99.6 | 88.3 | 89.9 | 97.5 | 96.7 | 98.2 | 92.3 | 91.9 |
| CC(/C=C1\SC(=S)N(CC(=O)O)C1=O)=C\c1ccccc1 [epalrestat] | 0 | 0 | 0 | 0 | 0 | > 10 | > 10 | > 10 | > 10 | > 10 | 102 | 96.8 | 96.7 | 97.8 | 107 | 99.4 | 98.1 | 98.4 | 103 | 100 | 100 | 96.4 | 102 | 95.6 | 106 | 92.6 | 87.2 | 95.8 | 104 | 98.8 | 98.3 | 95.4 | 94.7 | 101 | 102 |
| CC1C=CC=CCCC=CC=CC=CC=CC(OC2OC(C)C(O)C(N)C2O)CC2OC(O)(CC(O)C(O)CCC(O)CC(O)CC(O)CC(=O)OC(C)C(C)C1O)CC(O)C2C(=O)O (stereo not given) [nystatin] | 0 | 0 | 0 | 0 | 0 | > 10 | > 10 | > 10 | > 10 | > 10 | 106 | 84.5 | 94.6 | 104 | 109 | 102 | 99.3 | 99 | 102 | 104 | 96.7 | 101 | 98.7 | 96.8 | 110 | 98.4 | 98.5 | 97.4 | 97.4 | 103 | 92.9 | 93.6 | 94.7 | 96.1 | 107 |
| CNC(=O)c1cc2c(cn1)[nH]c1ccccc12 [FG-7142] | 0 | 0 | 0 | 0.8 | 0 | > 10 | > 10 | > 10 | > 10 | > 10 | 96.9 | 91.8 | 98.2 | 100 | 103 | 98.2 | 100 | 96.9 | 100 | 96.9 | 101 | 88.4 | 107 | 96.3 | 110 | 97.7 | 104 | 92.2 | 89.8 | 88.2 | 102 | 95.7 | 98.2 | 100 | 101 |
| Cc1c(-c2ccccc2)oc2c(C(=O)OCCN3CCCCC3)cccc2c1=O [flavoxate] | 0 | 0 | 0 | 0 | 0 | > 10 | > 10 | > 10 | > 10 | > 10 | 94.9 | 91.9 | 91.7 | 105 | 110 | 97.3 | 101 | 93 | 104 | 98.8 | 102 | 99.2 | 104 | 98.3 | 96.1 | 89.1 | 91.5 | 92.9 | 97.1 | 108 | 98.1 | 91.7 | 96.2 | 94.1 | 107 |
